Key:
[1] = feeding trial in sheep fitted with rumen cannulae, rumen ammonia profile; format: in vivo
Procedure: Samples consisted of prilled urea-cement matrix coated with a primer of the type oxychloride cement followed by 3 or 4 layers of rosin and calcium carbonate.
The experiment was carried out with sheep fitted with rumen cannulae. Sheep were fed on a control diet of 63% grass hay and 37% of unmollassed sugarbeet pulp. Control diet was then supplemented with 1.3% urea (or urea equivalent in the is form of a controlled-release product) and added directly into the rumen to avoid excess chewing, which is known to be more intense in sheep compared to cattle. Data from the feeding trials are described in Table 4 and FIG. 3.

[2] = in vitro solubility assay of urea in water at 39° C.; format: physicochemical; conditions: 50 mg urea in 50 ml water at 39° C.
Procedure: The coating layers consisted of rosin only or a combination of primer and rosin. […] Fifty mg urea was incubated in 50 ml water at 39° C. Samples (1 ml) were taken after 1, 2, 4 and 7.5 h incubation. Urea concentration was estimated by spectrophotometry.

**Q.** For `NC(N)=O` [Urea, urea], which Rumen ammonia ([1]; 0 h after feeding, diet supplemented with 1.3% urea or urea equivalent, added directly into the rumen) is on record?
**A.** Its Rumen ammonia is 8.8 mg N/100 ml.

**Q.** What about the Rumen ammonia ([1]; 1 h after feeding, 1.3% urea or urea equivalent into the rumen) of the same compound?
**A.** Its Rumen ammonia is 33.3 mg N/100 ml.

**Q.** What about the Rumen ammonia ([1]; 2 h after feeding, 1.3% urea or urea equivalent into the rumen) of the same compound?
**A.** The Rumen ammonia was 25.0 mg N/100 ml.

**Q.** What about the Rumen ammonia ([1]; 4 h after feeding, 1.3% urea or urea equivalent into the rumen) of the same compound?
**A.** Its Rumen ammonia is 10.7 mg N/100 ml.

**Q.** And the Rumen ammonia ([1]; 8 h after feeding, 1.3% urea or urea equivalent into the rumen)?
**A.** Its Rumen ammonia is 6.6 mg N/100 ml.

**Q.** What about the Rumen ammonia ([1]; 12 h after feeding, 1.3% urea or urea equivalent into the rumen) of the same compound?
**A.** The Rumen ammonia was 9.0 mg N/100 ml.

**Q.** And the “Urea solubilized (%)” value ([2]; incubation time 1 h)?
**A.** Its value is 98.9%.

**Q.** And the “Urea solubilized (%)” value ([2]; incubation time 2 h)?
**A.** Its value is 100.1%.

**Q.** And the “Urea solubilized (%)” value ([2]; incubation time 4 h)?
**A.** The value was 99.3%.

**Q.** And the “Urea solubilized (%)” value ([2]; incubation time 7.5 h)?
**A.** The value was 100.6%.

Source: US20040074272A1, “Controlled release urea product and method of preparing said product” (priority 2001, published 2004)
